Measurements reported in patent US10851083B2, “Benzoimidazoles as prolyl hydroxylase inhibitors” (Janssen Pharmaceutica NV, priority 2008, dated 2020).

Tests used:
Hep-3B cells = assay: Cellular assay: EPO secretion in Hep-3B cells; format: cell-based, human; parameters: EPO secretion, % of control compound: dose or concentration left out as unconfirmed; conditions: Homo sapiens, Hep3B, 24 h, EPO secretion as percentage of control compound 7-[(4-Chloro-phenyl)-(5-methyl-isoxazol-3-ylamino)-methyl]-quinolin-8-ol, read-out: Cellular % EPO Stimulation
human PHD2181-417 = human PHD2181-417 (Homo sapiens (Human), UniProt Q9GZT9); assay: PHD2 enzyme activity assay ([14C]-succinic acid production); format: biochemical; conditions: PHD2181-417 polypeptide, HIF-1α peptide 10 μM, [5-14C]-2-oxoglutaric acid; 30 min pre-incubation; tested 10 μM to 3 nM;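 also: reaction ran 10 min with compound in Tris pH 7.5 buffer with catalase, DTT and ascorbate, labelled succinate freed of leftover 2-oxoglutarate by DNP precipitation, then beta counted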
human PHD2181-417, sequence (Q9GZT9 181-417): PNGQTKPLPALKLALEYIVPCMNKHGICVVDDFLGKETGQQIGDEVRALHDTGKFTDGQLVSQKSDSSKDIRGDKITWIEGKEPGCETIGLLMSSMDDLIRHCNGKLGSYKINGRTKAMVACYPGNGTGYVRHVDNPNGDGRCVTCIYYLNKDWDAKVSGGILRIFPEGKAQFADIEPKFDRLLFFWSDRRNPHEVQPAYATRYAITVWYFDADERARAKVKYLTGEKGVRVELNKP

Structure (SMILES)	EPO secretion, % of control compound (Hep-3B cells) [%]	Enzyme pIC50 (human PHD2181-417)
O=C(O)c1cnn(-c2nc3c(Cl)cc(Cl)cc3[nH]2)c1 [Example 34, 1-(4,6-Dichloro-1H-benzoimidazol-2-yl)-1H-pyrazole-4-carboxylic Acid]	56.3	6.5
CCS(=O)(=O)c1cc2nc(-n3cc(C(=O)O)cn3)[nH]c2cc1C(F)(F)F [Example 154, 1-(5-Ethylsulfonyl-6-trifluoromethyl-1H-benzoimidazol-2-yl)-1H-pyrazole-4-carboxylic Acid]	53.8	7.6
CCSc1cc2nc(-n3cc(C(=O)O)cn3)[nH]c2cc1OC(F)(F)F [Example 150, 1-(5-Ethylsulfanyl-6-trifluoromethoxy-1H-benzoimidazol-2-yl)-1H-pyrazole-4-carboxylic Acid]	47.2	7.2
O=C(O)c1cnn(-c2nc3c(Br)c(Cl)c(Cl)cc3[nH]2)c1 [Example 128, 1-(4-Bromo-5,6-dichloro-1H-benzoimidazol-2-yl)-1H-pyrazole-4-carboxylic Acid]	24.1	7.1
Nc1cc2nc(-n3cc(C(=O)O)cn3)[nH]c2cc1Cl [Example 41, 1-(5-Amino-6-chloro-1H-benzoimidazol-2-yl)-1H-pyrazole-4-carboxylic Acid]	30	6.4
O=C(O)c1cnn(-c2nc3c(Br)cc(F)cc3[nH]2)c1 [Example 124, 1-(4-Bromo-6-fluoro-1H-benzoimidazol-2-yl)-1H-pyrazole-4-carboxylic Acid]	2.4	6.3
O=C(O)c1cnn(-c2nc3cc(C(=O)NN4CCOCC4)ccc3[nH]2)c1 [Example 122, 1-[5-(Morpholin-4-ylcarbamoyl)-1H-benzoimidazol-2-yl]-1H-pyrazole-4-carboxylic Acid]	5.4	6.6
O=C(O)c1cnn(-c2nc3cc(S(=O)(=O)c4ccccc4)c(Cl)cc3[nH]2)c1 [Example 83, 1-(5-Benzenesulfonyl-6-chloro-1H-benzoimidazol-2-yl)-1H-pyrazole-4-carboxylic Acid]	96.7	7.57
O=C(O)c1cnn(-c2nc3cc(N4CCCC4)c(Cl)cc3[nH]2)c1 [Example 43, 1-(6-Chloro-5-pyrrolidin-1-yl-1H-benzoimidazol-2-yl)-1H-pyrazole-4-carboxylic Acid]	178	6.7
CC(C)S(=O)(=O)c1cc2[nH]c(-n3cc(C(=O)O)cn3)nc2cc1Cl [Example 101, 1-[5-Chloro-6-(propane-2-sulfonyl)-1H-benzoimidazol-2-yl]-1H-pyrazole-4-carboxylic Acid]	62.2	7.3
CCSc1cc2nc(-n3cc(C(=O)O)cn3)[nH]c2cc1C(F)(F)F [Example 149, 1-(5-Ethylsulfanyl-6-trifluoromethyl-1H-benzoimidazol-2-yl)-1H-pyrazole-4-carboxylic Acid]	57.8	7.3
O=C(O)c1cnn(-c2nc3cc(SCCN4CCOCC4)c(Cl)cc3[nH]2)c1 [Example 166, 1-[6-Chloro-5-(2-morpholin-4-yl-ethylsulfanyl)-1H-benzoimidazol-2-yl]-1H-pyrazole-4-carboxylic Acid]	15.1	7
O=C(O)c1cnn(-c2nc3cc(Sc4ccc(Cl)cc4)c(Cl)cc3[nH]2)c1 [Example 61, 1-[6-Chloro-5-(4-chloro-phenylsulfanyl)-1H-benzoimidazol-2-yl]-1H-pyrazole-4-carboxylic Acid]	101	7.07
N#Cc1cc2nc(-n3cc(C(=O)O)cn3)[nH]c2cc1Cl [Example 39, 1-(6-Chloro-5-cyano-1H-benzoimidazol-2-yl)-1H-pyrazole-4-carboxylic Acid]	29.9	7.4
O=C(O)c1cnn(-c2nc3c(Cl)ncnc3[nH]2)c1 [Example 185, 1-(6-Chloro-9H-purin-8-yl)-1H-pyrazole-4-carboxylic Acid]	11.7	5.3
O=C(O)c1cnn(-c2nc3c(F)cc(F)cc3[nH]2)c1 [Example 112, 1-(4,6-Difluoro-1H-benzoimidazol-2-yl)-1H-pyrazole-4-carboxylic Acid]	32	6.8
O=C(O)c1cnn(-c2nc3c(F)c(F)ccc3[nH]2)c1 [Example 111, 1-(4,5-Difluoro-1H-benzoimidazol-2-yl)-1H-pyrazole-4-carboxylic Acid]	32.6	6.6
COc1cccc(S(=O)(=O)c2cc3nc(-n4cc(C(=O)O)cn4)[nH]c3cc2Cl)c1 [Example 88, 1-[6-Chloro-5-(3-methoxy-benzenesulfonyl)-1H-benzoimidazol-2-yl]-1H-pyrazole-4-carboxylic Acid]	69.4	7.4

Structure (SMILES)	EPO secretion, % of control compound (Hep-3B cells) [%]	Enzyme pIC50 (human PHD2181-417)
O=C(O)c1cnn(-c2nc3cc(OC(F)(F)F)c(Cl)cc3[nH]2)c1 [Example 113, 1-(6-Chloro-5-trifluoromethoxy-1H-benzoimidazol-2-yl)-1H-pyrazole-4-carboxylic Acid]	109	6.98
O=C(O)c1cnn(-c2nc3c(Cl)c(Cl)c(Cl)cc3[nH]2)c1 [Example 127, 1-(4,5,6-Trichloro-1H-benzoimidazol-2-yl)-1H-pyrazole-4-carboxylic Acid]	70.6	6.9
CCSc1cc2nc(-n3cc(C(=O)O)cn3)[nH]c2cc1F [Example 151, 1-(5-Ethylsulfanyl-6-fluoro-1H-benzoimidazol-2-yl)-1H-pyrazole-4-carboxylic Acid]	107	6.9
O=C(O)c1cnn(-c2nc3nc4ccccc4nc3[nH]2)c1 [Example 182, 1-(1H-Imidazo[4,5-b]quinoxalin-2-yl)-1H-pyrazole-4-carboxylic Acid]	13.4	5.5
O=C(O)c1cnn(-c2nc3cc(Oc4ccc(Cl)cc4)c(Cl)cc3[nH]2)c1 [Example 51, 1-[6-Chloro-5-(4-chloro-phenoxy)-1H-benzoimidazol-2-yl]-1H-pyrazole-4-carboxylic Acid]	150	7.4
O=C(O)c1cnn(-c2nc3cc(S(=O)(=O)c4ccc(Cl)cc4)c(Cl)cc3[nH]2)c1 [Example 85, 1-[6-Chloro-5-(4-chloro-benzenesulfonyl)-1H-benzoimidazol-2-yl]-1H-pyrazole-4-carboxylic Acid]	51.6	7.3
O=C(O)c1cnn(-c2nc3cc(SCc4ccccc4)c(Cl)cc3[nH]2)c1 [Example 66, 1-(5-Benzylsulfanyl-6-chloro-1H-benzoimidazol-2-yl)-1H-pyrazole-4-carboxylic Acid]	41.6	6.7
O=C(O)c1cnn(-c2nc3cc(SCCc4ccccc4)c(Cl)cc3[nH]2)c1 [Example 70, 1-(6-Chloro-5-phenethylsulfanyl-1H-benzoimidazol-2-yl)-1H-pyrazole-4-carboxylic Acid]	74.2	6.7
O=C(O)c1cnn(-c2nc3cc(SCc4ccccc4Cl)c(Cl)cc3[nH]2)c1 [Example 69, 1-[6-Chloro-5-(2-chloro-benzylsulfanyl)-1H-benzoimidazol-2-yl]-1H-pyrazole-4-carboxylic Acid]	85.3	6.8
O=C(O)c1cnn(-c2nc3cc(N4CCCCC4)c(Cl)cc3[nH]2)c1 [Example 44, 1-(6-Chloro-5-piperidin-1-yl-1H-benzoimidazol-2-yl)-1H-pyrazole-4-carboxylic Acid]	139	6.7
Cc1ccc2c(n1)c(Br)cc1nc(-n3cc(C(=O)O)cn3)[nH]c12 [Example 58, 1-(5-Bromo-7-methyl-1H-imidazo[4,5-f]quinolin-2-yl)-1H-pyrazole-4-carboxylic Acid]	50	7.2
CN1CCN(CC(=O)Nc2cc3nc(-n4cc(C(=O)O)cn4)[nH]c3cc2Cl)CC1 [Example 144, 1-{6-Chloro-5-[2-(4-methyl-piperazin-1-yl)-acetylamino]-1H-benzoimidazol-2-yl}-1H-pyrazole-4-carboxylic Acid]	16	6.4
O=C(O)c1cnn(-c2nc3cc(Nc4ccccc4)c(Cl)cc3[nH]2)c1 [Example 133, 1-(6-Chloro-5-phenylamino-1H-benzoimidazol-2-yl)-1H-pyrazole-4-carboxylic Acid]	77	6.9
CCSc1cc2[nH]c(-n3cc(C(=O)O)cn3)nc2cc1Cl [Example 76, 1-(5-Chloro-6-ethylsulfanyl-1H-benzoimidazol-2-yl)-1H-pyrazole-4-carboxylic Acid]	212	6.9
Cc1cc(Br)cc2nc(-n3cc(C(=O)O)cn3)[nH]c12 [Example 49, 1-(5-Bromo-7-methyl-1H-benzoimidazol-2-yl)-1H-pyrazole-4-carboxylic Acid]	24	6.1
O=C(O)c1cnn(-c2nc3cc(C(=O)NCc4ccccc4)ccc3[nH]2)c1 [Example 121, 1-(5-Benzylcarbamoyl-1H-benzoimidazol-2-yl)-1H-pyrazole-4-carboxylic Acid]	18.5	7.1
O=C(O)c1cnn(-c2nc3c(Br)c(F)c(F)cc3[nH]2)c1 [Example 32, 1-(4-Bromo-5,6-difluoro-1H-benzoimidazol-2-yl)-1H-pyrazole-4-carboxylic Acid]	33	6.7
